Assay results reported in ChEMBL document CHEMBL1153252, “Anti-human immunodeficiency virus activity and cytotoxicity of derivatized buckminsterfullerenes” (Bioorg Med Chem Lett, 1996).

Legend:
[1] = Compound was evaluated for the toxicity in human PBM cells; format: functional, cell-based
[2] = tested on: Vero; test: Compound was evaluated for the toxicity in rapidly dividing Vero cells (African Green monkeys kidney cells); format: functional, cell-based; conditions: Chlorocebus sabaeus
[3] = Compound was evaluated for the anti-HIV-1 activity in human peripheral blood mononuclear cells infected with HIV-1LA1.; format: functional

| SMILES | IC50 [1] | IC50 [2] | EC50 ([3]; Homo sapiens) | EC50 [3] |
| --- | --- | --- | --- | --- |
| O=C(O)CCC(=O)OC1CCC23c4c5c6c7c8c9c%10c%11c%12c%13c%14c%15c%16c%17c%18c(c9c6c6c%18c9c%17c%17c%15c%15c%18c%14c%14c%12c%12c%11c8c(c8c%11c2c2c4c4c(c56)c9c5c4c4c2c2c%11c(c8%12)c%14c%18c2c4c%15c%175)C73C1)C%10C%13%16 (centres undefined) | > 100 µM | > 100 µM | 6.3 µM | – |
| O=C(O)CO/N=C1\CCC23c4c5c6c7c8c9c%10c%11c%12c%13c%14c%15c%16c%17c%18c(c9c6c6c%18c9c%17c%17c%15c%15c%18c%14c%14c%12c%12c%11c8c(c8c%11c2c2c4c4c(c56)c9c5c4c4c2c2c%11c(c8%12)c%14c%18c2c4c%15c%175)C73C1)C%10C%13%16 (centres undefined) | > 100 µM | > 100 µM | 2.9 µM | – |
| O=C(CCCc1ccc(C2(c3ccccc3)C34c5c6c7c8c9c%10c(c%11c%12c3c3c5c5c%13c6c6c7c7c9c9c%14c%10c%10c%11c%11c%12c%12c3c3c5c5c%13c%13c6c6c7c9c7c9c%14c%10c%10c%11c%11c%12c3c3c5c5c%13c6c7c6c9c%10c%11c3c56)C824)cc1)NC(CO)(CO)CO (centres undefined) | > 100 µM | > 100 µM | 2.5 µM | – |
| c1ccc(C2(c3ccc4c(c3)OCCOCCOCCOCCOCCO4)C34C5=C6C7=C8Cc9c%10c8c8c%11c%12c%13c%14c%15c(c6c6c%16c%17c(c%18c%19c3c(c3c9c9c%20c%10c%11c%10c%11c%12c%12c%14c(c%15%16)c%14c%17c%15c%18c%16c%19c3c9c3c%16c9c%15c%14c%12c%11c9c3c%20%10)C5)C642)C7C8%13)cc1 (centres undefined) | > 100 µM | > 100 µM | 137 µM | – |
| O=C(O)CO/N=C1\C=CC23c4c5c6c7c8c9c%10c%11c%12c%13c%14c%15c%16c%17c%18c(c9c6c6c%18c9c%17c%17c%15c%15c%18c%14c%14c%12c%12c%11c8c(c8c%11c2c2c4c4c(c56)c9c5c4c4c2c2c%11c(c8%12)c%14c%18c2c4c%15c%175)C73C1)C%10C%13%16 (centres undefined) | > 100 µM | 33.9 µM | 7.3 µM | – |
| COC1C/C(=N\OCC(=O)O)CC23c4c5c6c7c8c9c(c%10c%11c2c2c4c4c%12c5c5c6c6c8c8c%13c9c9c%10c%10c%11c%11c2c2c4c4c%12c%12c5c5c6c8c6c8c%13c9c9c%10c%10c%11c2c2c4c4c%12c5c6c5c8c9c%10c2c45)C713 (centres undefined) | > 100 µM | > 100 µM | 0.9 µM | – |
| CC12CCC/C(=N\OCC(=O)O)C1C13c4c5c6c7c8c9c%10c%11c%12c%13c%14c%15c(c6c6c4c4c%16c%17c%18c(c%19c%20c1c5c8c1c%20c5c%19c8c%18c%18c%19c%17c%17c4c6c%15c4c%14c6c%12c%12c%14c%11c(c91)c5c%14c8c%18c%12c6c%19c4%17)C%1623)C7C%10%13 (centres undefined) | > 100 µM | > 100 µM | 21.7 µM | – |
| CC1C=CC(COC(=O)CCC(=O)O)C23c4c5c6c7c8c9c%10c%11c%12c%13c%14c%15c%16c%17c%18c(c9c6c6c%18c9c%17c%17c%15c%15c%18c%14c%14c%12c%12c%11c8c(c8c%11c2c2c4c4c(c56)c9c5c4c4c2c2c%11c(c8%12)c%14c%18c2c4c%15c%175)C713)C%10C%13%16 (centres undefined) | > 100 µM | > 100 µM | 2.2 µM | – |
| CN1CC23C4=C5Cc6c7c5c5c8c9c%10c%11c%12c(c2c2c%13c%14c%15c%16c%17c%18c%19c%20c(c6c6c%20c%20c%18c%18c%21c%17c%14c%14c(c%12%13)c%11c%11c9c9c%12c8c7c6c%12c%20c%18c9c%11c%14%21)=C6CC3(C1)C(C2%15)C61CN(C)CC%16%191)C4C5%10 (centres undefined) | > 100 µM | > 100 µM | 72.7 µM | – |
| OC1CCC23CC4=c5c6c7c8c9c%10c%11c%12c%13c%14c%15c%16c%17c(c-8c8c%18c%17c%17c(c%19c%20c%21c%22c%23c%24c%25c%26c%27c%28c(c5c(c6%10)c5c%28c%25c(c%13c%24c%14c%22c%16c%17%21)c%115)CC%27=C(C%20C%23%26)C%192C1)C%18C3C41CC(O)CCC871)C9%15%12 (centres undefined) | > 100 µM | > 100 µM | 17.6 µM | – |
| O=C(O)CCC(=O)NCCc1ccc(C2(c3ccc(CCNC(=O)CCC(=O)O)cc3)C34c5c6c7c8c9c5c5c%10c%11c%12c(c%13c%14c%15c%16c%17c%18c%19c%20c%21c%22c(c-%13c3c6c%22c3c7c6c7c%13c%22c%23c%24c(c9c5c5c%11c9c(c%15%12)c%16c%11c%18c(c%13c%19c7c%213)c%23c%11c9c%245)C86%22)C%14C%20%17)C%1024)cc1 (centres undefined) | > 100 µM | > 100 µM | 7.3 µM | – |
| COC1CC(=O)CC23C4=c5c6c7c8c9c%10c%11c%12c%13c%14c%15c%16c%17c%18c%19c%20c(c%21c%22c%23c(c5c5c6c6c8c%11c8c%11c%12c%12c%14c(c%15%19)c%14c%20c%22c%15c%19c%23c5c(c68)c%19c%11c%12c%14%15)C%2112)C%18C3C1(C4)C(OC)CC(=O)CC%171C(=C9C7)C%16C%10%13 (single isomer, unassigned; isomer A) | – | – | – | > 100 µM |
| COC1CC(=O)CC23C4=c5c6c7c8c9c%10c%11c%12c%13c%14c%15c%16c%17c%18c%19c%20c(c%21c%22c%23c(c5c5c6c6c8c%11c8c%11c%12c%12c%14c(c%15%19)c%14c%20c%22c%15c%19c%23c5c(c68)c%19c%11c%12c%14%15)C%2112)C%18C3C1(C4)C(OC)CC(=O)CC%171C(=C9C7)C%16C%10%13 (stereo in doubt) | > 100 µM | > 100 µM | – | 7.7 µM |
| Cc1cn([C@H]2C[C@H](N=[N+]=[N-])[C@@H](CO)O2)c(=O)[nH]c1=O [ZIDOVUDINE] | > 100 µM | – | 0.004 µM | – |
